This passage reports IC50 results from US12187684B2, “Benzimidazole derivatives as modulators of retinoid-related orphan receptor gamma (RORγ) and pharmaceutical use thereof” (Jiangsu Hengrui Medicine Co., Ltd., priority 2018, dated 2025).

This experiment has as its target T1, RORγ LBD-GST tagged (Homo sapiens, UniProt P51449).
T1 construct: RORγ LBD-GST tagged (Cat No. RORC-114H, Creative Biomart); purchased Creative Biomart RORC-114H
T1 sequence (P51449 269-508 limits assumed): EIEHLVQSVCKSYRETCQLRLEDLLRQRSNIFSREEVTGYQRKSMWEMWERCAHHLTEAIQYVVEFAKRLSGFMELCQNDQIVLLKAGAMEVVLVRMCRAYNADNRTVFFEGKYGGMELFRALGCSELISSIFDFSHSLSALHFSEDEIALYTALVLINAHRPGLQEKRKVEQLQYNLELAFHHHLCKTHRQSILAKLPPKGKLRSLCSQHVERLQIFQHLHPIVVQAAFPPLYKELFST
Nature of the experiment: LanthaScreen TR-FRET RORγ coactivator assay. Conditions: Fluorescein-D22 coactivator peptide, 1 hour room temperature. Format: biochemical. From the text:
LanthaScreen TR-FRET Retinoid-Related Orphan Receptor Gamma (RORγ) Coactivator Assay Materials and Reagents • 1. […] Fluorescein-D22 coactivator peptide (Cat No. PV4386, Invitrogen) • 3. LanthaScreen™ Tb anti-GST antibody (Cat No. PV3550, Invitrogen) • 4. TR-FRET coregulatory buffer D (Cat No, PV4420, Invitrogen) • 5. DTT (Cat No. P2325, Fisher) • 6. […] Tecan Infinite M1000 plate reader (Tecan) Experimental Procedure Prepare Complete TR-FRET Coregulator Buffer D by adding 1 M DTT to TR-FRET Coregulator Buffer D to the final concentration of 5 mM DTT. Make compound dilution in Complete TR-FRET Coregulator Buffer D. Highest dose is 3 μM, 7-folder dilution for total 7 doses. Add 10 μL to each well of a 384-well plate. For the negative and positive controls, add 10 μL of Complete TR-FRET Coregulator Buffer D. Prepare RORγ LBD using Complete TR-FRET Coregulator Buffer D. The final concentration of RORγ LBD is 25 ng/reaction. Add 5 μL RORγ LBD to all the wells of the 384-well assay plate except negative wells which adding 5 μL Complete TR-FRET Coregulator Buffer D. Prepare a solution containing 0.6 μM Fluorescein-D22 and 8 nM Tb anti-GST antibody using Complete TR-FRET Coregulator Buffer D. Add 5 μL to all wells of the 384-well assay plate. Briefly and gently mix the 384-well plate on a plate shaker and incubate at room temperature protected from light for 1 hour. The plate may be sealed with a cover to minimize evaporation. Read the plate at wavelengths of 520 nm and 495 nm on Tecan Infinite M1000. IC50 values were calculated using GraphPad Prism by plotting the logarithm of compounds concentration versus percent inhibition.
In the case of `NC(=O)CC(c1ccc(S(=O)(=O)CC2CC2)cc1)c1nc2cc(Cl)c(N3CCC(F)(F)CC3)c(Cl)c2[nH]1` (single isomer, unassigned) [3-(4-((cyclopropylmethyl)sulfonyl)phenyl)-3-(5,7-dichloro-6-(4,4-difluoropiperidin-1-yl)-1H-benzo[d]imidazol-2-yl)propanamide], the IC50 stood at 0.014 µM. The result for `CCS(=O)(=O)c1ccc(C(CO)c2nc3c(Cl)c(-c4ccccc4C#N)c(Cl)cc3[nH]2)cc1` (stereo not drawn) [Example 22, 2-(4,6-dichloro-2-(1-(4-(ethylsulfonyl)phenyl)-2-hydroxyethyl)-1H-benzo[d]imidazol-5-yl)benzonitrile] reads 0.219 µM. Turning to `CS(=O)(=O)c1ccc(Cc2nc3c(Cl)c(-c4ccccc4OC(F)F)c(Cl)cc3[nH]2)cc1` [Example 47, 4,6-dichloro-5-(2-(difluoromethoxy)phenyl)-2-(4-(methylsulfonyl)benzyl)-1H-benzo[d]imidazole], the 50% inhibitory concentration (IC50) was determined as 0.196 µM. The result for `CCS(=O)(=O)c1ccc(C(O)c2nc3c(Cl)c(-c4ccccc4)c(Cl)cc3[nH]2)cc1` (stereo not drawn) [Example 2, (4,6-dichloro-5-phenyl-1H-benzo[d]imidazol-2-yl)(4-(ethylsulfonyl)phenyl)methanol] reads 0.467 µM; that for `O=S(=O)(CC1CC1)c1ccc(Cc2nc3c(Cl)c(-c4ccccc4OC(F)F)c(Cl)cc3[nH]2)c(F)c1` [Example 98, 4,6-dichloro-2-(4-((cyclopropylmethyl)sulfonyl)-2-fluorobenzyl)-5-(2-(difluoromethoxy)phenyl)-1H-benzo[d]imidazole], 0.007 µM; that for `CCS(=O)(=O)c1ccc(C(O)c2nc3c(Cl)c(-c4ccccc4F)c(Cl)cc3[nH]2)cc1` (stereo not drawn) [Example 12, (4,6-dichloro-5-(2-fluorophenyl)-1H-benzo[d]imidazol-2-yl)(4-(ethylsulfonyl)phenyl)methanol], 0.106 µM. As for `CS(=O)(=O)c1ccc(C(O)c2nc3c(Cl)c(-c4ccccc4OC(F)(F)F)c(Cl)cc3[nH]2)c(Cl)c1` (stereo not drawn) [Example 103, (2-chloro-4-(methylsulfonyl)phenyl)(4,6-dichloro-5-(2-(trifluoromethoxy)phenyl)-1H-benzo[d]imidazol-2-yl)methanol], the figure is 0.158 µM; as for `CCS(=O)(=O)c1ccc(C(O)c2nc3c(F)c(-c4ccccc4OC(F)(F)F)c(F)cc3[nH]2)cc1` (stereo not drawn) [Example 110, (4,6-difluoro-5-(2-(trifluoromethoxy)phenyl)-1H-benzo[d]imidazol-2-yl)(4-(ethylsulfonyl)phenyl)methanol], 0.698 µM.

As to `O=S(=O)(CC1CC1)c1ccc(C(CO)c2nc3c(Cl)c(-c4ccccc4F)c(Cl)cc3[nH]2)cc1` (stereo not drawn) [Example 74, 2-(4-((cyclopropylmethyl)sulfonyl)phenyl)-2-(4,6-dichloro-5-(2-fluorophenyl)-1H-benzo[d]imidazol-2-yl)ethanol], half-maximal inhibition (IC50) required 0.187 µM. With `CCS(=O)(=O)c1ccc(C(O)c2nc3c(F)c(-c4ccccc4OC)c(F)cc3[nH]2)cc1` (stereo not drawn) [Example 113, (4,6-difluoro-5-(2-methoxyphenyl)-1H-benzo[d]imidazol-2-yl)(4-(ethylsulfonyl)phenyl)methanol], the IC50 was 0.18 µM. `O=S(=O)(c1ccc(Cc2nc3c(Cl)c(-c4ccccc4C(F)(F)F)c(Cl)cc3[nH]2)cc1)C(F)(F)F` [Example 65, 4,6-dichloro-5-(2-(trifluoromethyl)phenyl)-2-(4-((trifluoromethyl)sulfonyl)benzyl)-1H-benzo[d]imidazole] yielded a half-maximal inhibitory concentration (IC50) of 0.015 µM.

In turn, `CC(C)S(=O)(=O)c1ccc(Cc2nc3c(Cl)c(-c4ccccc4OC(F)(F)F)c(Cl)cc3[nH]2)cc1` [Example 104] yielded an IC50 of 0.337 µM. The result for `CS(=O)(=O)c1ccc(C(CO)c2nc3c(Cl)c(-c4ccccc4OC(F)(F)F)c(Cl)cc3[nH]2)cc1` (stereo not drawn) [Example 57, 2-(4,6-dichloro-5-(2-(trifluoromethoxy)phenyl)-1H-benzo[d]imidazol-2-yl)-2-(4-(methylsulfonyl)phenyl)ethanol] reads 0.187 µM; that for `COCCS(=O)(=O)c1ccc(C(O)c2nc3c(Cl)c(-c4ccccc4OC(F)(F)F)c(Cl)cc3[nH]2)cc1` (stereo not drawn) [Example 55, (4,6-dichloro-5-(2-(trifluoromethoxy)phenyl)-1H-benzo[d]imidazol-2-yl)(4-((2-methoxyethyl)sulfonyl)phenyl)methanol], 0.194 µM. As for `CS(=O)(=O)c1ccc(Cc2nc3c(Cl)c(-c4ccccc4OC(F)(F)F)c(Cl)cc3[nH]2)c(Cl)c1` [Example 101, 4,6-dichloro-2-(2-chloro-4-(methylsulfonyl)benzyl)-5-(2-(trifluoromethoxy)phenyl)-1H-benzo[d]imidazole], the figure is 0.082 µM; as for `CC(C)Oc1ccccc1-c1cc2nc(C(CC(N)=O)c3ccc(S(=O)(=O)CC4CC4)cc3)[nH]c2cc1Cl` (single isomer, unassigned) [3-(6-chloro-5-(2-isopropoxyphenyl)-1H-benzo[d]imidazol-2-yl)-3-(4-((cyclopropylmethyl)sulfonyl)phenyl)propanamide], 1.41 µM. `O=S(=O)(CCF)c1ccc(Cc2nc3c(Cl)c(-c4ccccc4OC(F)(F)F)c(Cl)cc3[nH]2)cc1` [Example 61, 4,6-dichloro-2-(4-((2-fluoroethyl)sulfonyl)benzyl)-5-(2-(trifluoromethoxy)phenyl)-1H-benzo[d]imidazole] registered an IC50 of 0.509 µM.

As for `N#Cc1ccccc1-c1c(Cl)cc2[nH]c(C(O)c3ccc(S(=O)(=O)CC4CC4)cc3)nc2c1Cl` (stereo not drawn) [Example 97, 2-(4,6-dichloro-2-((4-((cyclopropylmethyl)sulfonyl)phenyl)(hydroxy)methyl)-1H-benzo[d]imidazol-5-yl)benzonitrile], 0.001 µM corresponded to half-maximal inhibition (IC50). As for `CCS(=O)(=O)c1ccc(C(O)c2nc3c(Cl)c(-c4ccsc4)c(Cl)cc3[nH]2)cc1` (stereo not drawn) [Example 26, (4,6-dichloro-5-(thiophen-3-yl)-1H-benzo[d]imidazol-2-yl)(4-(ethylsulfonyl)phenyl)methanol], the figure is 0.465 µM; as for `CCS(=O)(=O)c1ccc(Cc2nc3c(Cl)c(-c4ccccc4OC(F)F)c(Cl)cc3[nH]2)cc1` [Example 28, 4,6-dichloro-5-(2-(difluoromethoxy)phenyl)-2-(4-(ethylsulfonyl)benzyl)-1H-benzo[d]imidazole], 0.045 µM; as for `CCS(=O)(=O)c1ccc(C(O)c2nc3cc(-c4ccccc4OC(F)(F)F)c(F)cc3[nH]2)cc1` (stereo not drawn) [Example 121, (4-(ethylsulfonyl)phenyl)(6-fluoro-5-(2-(trifluoromethoxy)phenyl)-1H-benzo[d]imidazol-2-yl)methanol], 0.966 µM. As for `O=S(=O)(CC1CC1)c1ccc(C(CO)c2nc3c(Cl)c(-c4ccccc4OC(F)(F)F)c(Cl)cc3[nH]2)c(Cl)c1` (stereo not drawn) [Example 91, 2-(2-chloro-4-((cyclopropylmethyl)sulfonyl)phenyl)-2-(4,6-dichloro-5-(2-(trifluoromethoxy)phenyl)-1H-benzo[d]imidazol-2-yl)ethanol], the figure is 0.14 µM. Take `O=S(=O)(CC1CC1)c1ccc(Cc2nc3c(Cl)c(-c4ccccc4OC(F)(F)F)c(Cl)cc3[nH]2)c(Cl)c1` [Example 90, 4,6-dichloro-2-(2-chloro-4-((cyclopropylmethyl)sulfonyl)benzyl)-5-(2-(trifluoromethoxy)phenyl)-1H-benzo[d]imidazole]: the IC50 is 0.004 µM. In the case of `CC(C)S(=O)(=O)c1ccc(C(O)c2nc3c(Cl)c(-c4ccccc4OC(F)(F)F)c(Cl)cc3[nH]2)cc1` (stereo not drawn) [Example 106, (4-((iso-propyl)sulfonyl)phenyl)(4,6-dichloro-5-(2-(trifluoromethoxy)phenyl)-1H-benzo[d]imidazol-2-yl)methanol], half-maximal inhibition (IC50) was put at 0.003 µM. Regarding `CCCS(=O)(=O)c1ccc(Cc2nc3c(Cl)c(-c4ccccc4OC(F)(F)F)c(Cl)cc3[nH]2)cc1` [Example 50, 4,6-dichloro-2-(4-(propylsulfonyl)benzyl)-5-(2-(trifluoromethoxy)phenyl)-1H-benzo[d]imidazole], it took 0.284 µM to reach half-maximal inhibition (IC50). The compound `O=S(=O)(CC1CC1)c1ccc(C(O)c2nc3c(Cl)c(-c4ccccc4OC(F)(F)F)c(Cl)cc3[nH]2)c(F)c1` (stereo not drawn) [Example 82, (4-((cyclopropylmethyl)sulfonyl)-2-fluorophenyl)(4,6-dichloro-5-(2-(trifluoromethoxy)phenyl)-1H-benzo[d]imidazol-2-yl)methanol] had an IC50 of 0.046 µM. The result for `O=S(=O)(CCF)c1ccc(C(CO)c2nc3c(Cl)c(-c4ccccc4C(F)(F)F)c(Cl)cc3[nH]2)cc1` (stereo not drawn) [Example 64, 2-(4,6-dichloro-5-(2-(trifluoromethyl)phenyl)-1H-benzo[d]imidazol-2-yl)-2-(4-((2-fluoroethyl)sulfonyl)phenyl)ethanol] reads 0.465 µM.

Usually IC50 stands for the point on the concentration scale where inhibition reaches its midpoint. A higher IC50 goes with a need for much substance.
